Key:
[1] = test system: CCRF-CEM lymphoblasts; assay: BrU incorporation analysis (RNA synthesis); type: cell-based, human; conditions: for RNA synthesis, BrU incorporation (in words): 1× and 5×IC50, 24 h, gated remaining live cells
Procedure, shortened: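 CCRF-CEM cells were treated with compounds for 24 h, then pulsed with 1 mM BrU for 30 min and fixed in 1% paraformaldehyde/0.05% NP-40. BrU was detected with a cross-reacting anti-BrdU antibody and FITC secondary, with propidium iodide/RNase counterstain; value is percentage of BrU-positive cells by flow cytometry.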

[2] = test system: CEM-DNR (daunorubicin resistant variant of CCRF-CEM); assay: MTS cytotoxicity assay, CEM-DNR; type: cell-based, human; conditions: Homo sapiens, CEM-DNR; MTS assay, 72-h incubation, mean ± SD of 3 independent experiments; read-out: IC50 cytotoxic activity CEM-DNR
Procedure, shortened: (§1)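 Viability is measured by MTS after cells, seeded overnight, receive fourfold-diluted compounds for 72 h at 37 °C.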

[3] = MTS cytotoxicity assay, HUVEC; type: cell-based; conditions: human, HUVEC cells (umbilical vein endothelial cells); MTS assay, 72-h incubation, mean ± SD of 3 independent experiments; read-out: IC50 cytotoxic activity HUVEC
Procedure, shortened: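 Overnight-seeded cells → fourfold serial compound dilutions (DMSO) → 72 h, 37 °C, 5% CO2 → MTS added. Duplicates ×3 biological reps.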

[4] = test system: CCRF-CEM lymphoblasts; assay: Cell cycle analysis by flow cytometry (propidium iodide); type: cell-based, human
Procedure, shortened: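 CCRF-CEM cells treated 24 h, then fixed in cold 70% ethanol, permeabilised with 0.25% Triton X-100 and stained with anti-phospho-histone H3 (Ser10). After 50 μg/mL RNase and propidium iodide, analysed by flow cytometry at 488 nm; sub-G1 events counted as non-viable with fragmented DNA.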

[5] = test system: U2OS (osteosarcoma); assay: MTS cytotoxicity assay, U2OS; type: cell-based, human; conditions: MTS assay, 72-h incubation, mean ± SD of 3 independent experiments; for IC50: Homo sapiens, U2OS, read-out: IC50 cytotoxic activity U2OS
Procedure, shortened: as §1

[6] = test system: CCRF-CEM lymphoblasts; assay: BrDU incorporation analysis (DNA synthesis); type: cell-based, human
Procedure, shortened: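 CCRF-CEM cells exposed to compounds for 24 h, pulse-labelled 30 min before harvest with 10 μM BrDU, ethanol-fixed, HCl-denatured, stained with anti-BrdU/FITC plus propidium iodide and RNase. Flow cytometry (488 nm) gives the percentage of BrDU-positive cells.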

[7] = MTS cytotoxicity assay, BJ; type: cell-based; conditions: human, BJ cells (non-tumour skin fibroblasts); MTS assay, 72-h incubation, mean ± SD of 3 independent experiments; read-out: IC50 cytotoxic activity BJ
Procedure, shortened: as §1

[8] = test system: CCRF-CEM (childhood T-cell acute lymphoblastic leukaemia); assay: MTS cytotoxicity assay, CCRF-CEM; type: cell-based; conditions: Homo sapiens, MTS assay, 72-h incubation, mean ± SD of 3 independent experiments, read-out: IC50 cytotoxic activity CCRF-CEM
Procedure, shortened: (§2)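 MTS read-out after 72 h compound exposure at 37 °C. Cells plated the day before, treated with fourfold serial dilutions from DMSO stocks; duplicate wells, three independent experiments.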

[9] = test system: HCT116p53−/− (p53 gene null variant of HCT116); assay: MTS cytotoxicity assay, HCT116p53−/−; type: cell-based; conditions: Homo sapiens, HCT-116; MTS assay, 72-h incubation, mean ± SD of 3 independent experiments; read-out: IC50 cytotoxic activity HCT116p53-
Procedure, shortened: as §2

[10] = test system: A549 (lung adenocarcinoma); assay: MTS cytotoxicity assay, A549; type: cell-based, human; conditions: MTS assay, 72-h incubation, mean ± SD of 3 independent experiments; for IC50: Homo sapiens, A549, read-out: IC50 cytotoxic activity A549
Procedure, shortened: as §1

Structure (SMILES)	BrU, % of positive cells ([1]; 1×IC50, 24 h) [%]	BrU, % of positive cells ([1]; 5×IC50, 24 h) [%]	IC50 [2] [µM]	IC50 at 72 h [3] [µM]	<G1 (sub-G1, fragmented DNA), % of positive cells ([4]; 1×IC50, 24 h) [%]	>G2/M (polyploidy), % of positive cells ([4]; 1×IC50, 24 h) [%]	G0/G1, % of positive cells ([4]; 1×IC50, 24 h) [%]	G2/M, % of positive cells ([4]; 1×IC50, 24 h) [%]	S, % of positive cells ([4]; 1×IC50, 24 h) [%]	<G1 (sub-G1, fragmented DNA), % of positive cells ([4]; 5×IC50, 24 h) [%]	>G2/M (polyploidy), % of positive cells ([4]; 5×IC50, 24 h) [%]	G0/G1, % of positive cells ([4]; 5×IC50, 24 h) [%]	G2/M, % of positive cells ([4]; 5×IC50, 24 h) [%]	S, % of positive cells ([4]; 5×IC50, 24 h) [%]	IC50 [5] [µM]	BrDU, % of positive cells ([6]; 1×IC50, 24 h) [%]	BrDU, % of positive cells ([6]; 5×IC50, 24 h) [%]	IC50 at 72 h [7] [µM]	IC50 [8] [µM]	IC50 [9] [µM]	other results
C[C@]12CC[C@@H]3c4ccc(O)cc4CC[C@H]3[C@@H]1CC[C@@]2(O)c1cn(Cc2cc(Cn3cc([C@]4(O)CC[C@H]5[C@@H]6CCc7cc(O)ccc7[C@H]6CC[C@@]54C)nn3)cc(OCCO)c2)nn1 [ED5, (17β,17′β)-17,17′-{[5-(2-Hydroxyethoxy)benzene-1,3-diyl]bis(methanediyl-1H-1,2,3-triazole-1,4-diyl)}bisestra-1,3,5(10)-triene-3,17-diol]	65.14	66.40	> 50	< 0.0122	29.35	6.16	35.53	26.90	37.57	36.87	10.73	13.42	61.48	25.09	> 50	32.15	9.59	> 50	0.71 ± 0.04	1.98 ± 0.17	RNA synthesis, BrU incorporation (in words) [1]: high rate of RNA synthesis; IC50 cytotoxic activity U2OS [5]: did not exhibit activity; IC50 [10]: > 50 µM; IC50 cytotoxic activity A549 [10]: did not exhibit activity
C[C@]12CC[C@@H]3c4ccc(O)cc4CC[C@H]3[C@@H]1CC[C@@]2(O)c1cn(Cc2cccc(Cn3cc([C@]4(O)CC[C@H]5[C@@H]6CCc7cc(O)ccc7[C@H]6CC[C@@]54C)nn3)n2)nn1 [ED, reference compound]	34.33	15.43	> 50	0.0244 ± 0.017	11.51	11.2	33.48	25.59	40.93	22.78	23.1	2.50	59.11	38.39	6.23 ± 0.7	19.54	15.94	> 50	0.49 ± 0.22	0.9 ± 0.32	IC50 [10]: > 50 µM
COc1cc(Cn2cc([C@]3(O)CC[C@H]4[C@@H]5CCc6cc(O)ccc6[C@H]5CC[C@@]43C)nn2)cc(Cn2cc([C@]3(O)CC[C@H]4[C@@H]5CCc6cc(O)ccc6[C@H]5CC[C@@]43C)nn2)c1 [ED3, (17β,17′β)-17,17′-[(5-Methoxybenzene-1,3-diyl)bis(methanediyl-1H-1,2,3-triazole-1,4-diyl)]bisestra-1,3,5(10)-triene-3,17-diol]	68.66	60.00	> 50	< 0.0122	33.51	10.23	6.68	70.65	22.67	53.18	9.8	6.89	71.67	21.44	0.61 ± 0.033	7.81	3.23	> 50	0.38 ± 0.019	0.45 ± 0.039	RNA synthesis, BrU incorporation (in words) [1]: high rate of RNA synthesis; IC50 [10]: 0.6 ± 0.047 µM

Source: PMC467089, “Click estradiol dimers with novel aromatic bridging units: synthesis and anticancer evaluation” (Journal of Enzyme Inhibition and Medicinal Chemistry, 2024)
